Where “and” joins values, the source holds several entries; their conditions need not be identical. Identical values can stand only once. Like-named read-outs stand apart in the source and are kept apart here.
What was measured:
[1] = system: T. cruzi intracellular amastigotes; assay: Antiamastigote growth inhibition assay; format: cell-based; settings: intracellular amastigotes in Vero cells, mean (SD), read-out: T. cruzi IC50 b (antiamastigote assay)
Description: Vero cells were seeded in T-175 flasks (5 × 10^6 cells per flask) in DMEM supplemented with 1% penicillin–streptomycin and 10% FBS, and cultured for 24 h. Then, cells were washed once with PBS, and free-swimming trypomastigotes (1 × 10^7 trypomastigotes per flask; MOI = 1) in assay medium were added and allowed 18 h to infect. After that, infected cell monolayers were washed with PBS and detached. Cells were counted and diluted to a concentration of 5 × 10^5 cells per mL, before adding 100 µL per well to test plates already containing the drugs dispensed as described above. In all cases, we included BNZ as control drug, and each plate contained its own negative (Vero cells and parasites) and positive (Vero cells) controls.
(§1) Absorbance values derived from the anti-T. cruzi assays and fluorescence values from the anti-P. falciparum and cell toxicity assays were normalized to the controls. In the primary screening at three fixed doses, the compounds’ inhibitory activity was expressed as a percentage of the negative control (100% parasitic growth). In dose–response assays, the compounds’ IC50 and TC50 values were determined with GraphPad Prism 7 software (version 7.00, 2016), using a non-linear regression analysis model defined by the following equation: Y=100 ÷(1+10^((LogIC50−X)×HillSlope))

P. falciparum 3D7 = assay: P. falciparum primary screening at three fixed concentrations; format: cell-based; settings: average of at least three experiments
Description: Apicomplexan parasite cultures were maintained at 3% hematocrit under an atmosphere of 37 °C in 93% N2, 5% CO2, and 2% O2, following standard methods. Synchronized cultures were obtained via 5% sorbitol lysis.
[…] Conditions were tested in triplicate for every concentration, and the test was repeated when the standard deviation was above 10% for any concentration. Z-values varied between 0.83 and 0.98 in the different plates analyzed. Selected compounds (12.3% potential hit rate) were further analyzed via standard growth inhibition assays, carried out as previously described in [54]. Briefly, parasitemia was adjusted to 1–1.3%, with >90% rings after sorbitol synchronization. Two hundred microliters of parasite culture were plated in 96-well microplates and incubated for 48 h at 37 °C in the presence of decreasing concentrations of the tested compounds, in triplicate. Parasitemia was determined by fluorescence-assisted cell sorting (FACS). Non-infected RBCs and samples containing parasitized RBCs (including controls with DMSO as carrier solvent) were diluted in PBS to a final concentration of ~1–10 × 10^6 cells/mL. The cell suspension was stained with SYTO 11 (0.5 mM stock in DMSO, Thermo Fisher Scientific, Waltham, MA, USA), to a final concentration of 0.5 μM. Samples were analyzed in a Becton Dickinson FACSCalibur. Sample excitation was carried out using a 488-nm, air-cooled argon-ion laser at a power of 15 mW, using forward and side scatter to gate the RBC population, and SYTO 11 green fluorescence (530 nm, FITC filter) was collected in a logarithmic scale. The single-cell population was selected on a forward–side scattergram, and the green fluorescence from this population was analyzed. Parasitemia was expressed as the number of parasitized cells per 100 erythrocytes.
as §1

HepG2 cells = assay: HepG2 cell toxicity assay (alamarBlue); format: cell-based, human; settings: 2 days; minimum value of the 95% CI, except BNZ (mean (SD))
Description: (§2) Human erythrocytes were purified from B+ Rh+ blood samples and maintained at 4 °C in incomplete RPMI medium. Vero (green monkey kidney epithelial cells), LLC-MK2 (Rhesus monkey kidney epithelial cells), and HepG2 (human liver epithelial cells) cultures were cultivated in DMEM supplemented with 1% penicillin–streptomycin (PS) and 10% heat-inactivated fetal bovine serum (FBS) at 37 °C, 5% CO2, and >95% humidity, as described in [31]. HepG2 cells were also supplemented with 10% non-essential amino acids. Vero and MK2 cells were passaged twice per week at 1:12 ratios, while HepG2 cells were passaged at a 1:8 ratio.
(§3) Vero and HepG2 cells were detached, centrifuged, and resuspended in DMEM without phenol red. Cell viability was checked upon cell counting with trypan blue staining. Then, Vero and HepG2 cells were diluted at a concentration of 5 × 10^5 and 3.2 × 10^5 cells per mL, respectively, before adding 100 µL per well to the 96-well plate. Each run contained its own negative (untreated cells) and positive (medium alone) controls. Plates were incubated at 37 °C for 4 days in the case of Vero, or 2 in the case of HepG2 cells. Assay readout was made by adding 50 µL per well of a PBS solution containing 10% alamarBlue reagent (Thermo Fisher Scientific); then, plates were incubated for another 6 h at 37 °C, before recording the fluorescence intensity with a Tecan Infinite M Nano+ reader (excitation: 530 nm, emission: 590 nm).
as §1

Vero cells = assay: Vero cell toxicity assay (alamarBlue); format: cell-based, green monkey; settings: 4 days; minimum value of the 95% CI, except BNZ (mean (SD))
Description: as §2, §3, §1

[2] = system: T. cruzi Tulahuen strain expressing β-galactosidase; assay: anti-T. cruzi dose-response growth inhibition assay (Vero cells plus trypomastigotes, CPRG readout); format: cell-based; settings: Vero cells plus trypomastigotes, MOI 1, four days, mean (SD), read-out: T. cruzi IC50 a (anti-T. cruzi assay)
Description: T. cruzi parasites from the Tulahuen strain (discrete typing unit (DTU) VI) expressing β-galactosidase were maintained in culture by the infection of LLC-MK2 cells in DMEM supplemented with 2% FBS and 1% penicillin–streptomycin–glutamine (PSG), as described in [52]. When free-swimming trypomastigotes were released to the culture medium, they were centrifuged for 7 min at 2500 rpm and allowed to swim out of the pellet. Trypomastigotes were used to maintain the parasite cycle, or for the performance of the antiparasitic assays.
T. cruzi growth was primarily analyzed under three different concentrations ([…]) of the 81 compounds. Conditions were tested in triplicate for every concentration. Z-values varied between 0.81 and 0.92 in the different plates analyzed. Selected compounds (34.6% potential hit rate) were further analyzed via standard growth inhibition assays. The Z-values of dose–response assays correlated with those previously reported. For both assays, Vero cells and trypomastigotes from the Tulahuen T. cruzi strain expressing β-galactosidase were harvested, centrifuged, and resuspended in DMEM without phenol red supplemented with 1% PSG, 2% FBS, 1 mM sodium pyruvate, and 25 mM HEPES. Vero cells and trypomastigotes were counted, diluted at a concentration of 1 × 10^6 cells/mL each, and mixed 1:1 (v/v). Then, 100 μL of that mixture was added per well to the plates already containing the compounds. Each well contained 50,000 host cells and 50,000 parasites, i.e., multiplicity of infection (MOI) = 1. BNZ was used as control of maximal drug growth inhibition in each round, whereas each plate contained its own negative control (maximum parasite growth; Vero cells plus parasites without drugs) and positive control (minimum parasite growth; trypomastigote forms alone marking an enzymatic zero time or baseline galactosidase activity). After four days at 37 °C, 50 µL of a PBS solution containing 0.25% NP40 and 500 µM chlorophenol red-β-D-galactopyranoside (CPRG) substrate were added per well [32]. Plates were incubated at 37 °C for 4 h, and their absorbance read out at 590 nm using an Epoch Gene5 spectrophotometer.
as §1

Row | SMILES | IC50 [1] [µM] | Primary screening, parasite growth relative to the negative control (P. falciparum 3D7; compound at 1 µM) [%] | Primary screening, parasite growth relative to the negative control (P. falciparum 3D7; compound at 10 µM) [%] | Primary screening, parasite growth relative to the negative control (P. falciparum 3D7; compound at 100 µM) [%] | HepG2 Cells TC50 (HepG2 cells) | Vero Cells TC50 (Vero cells) | IC50 [2] [µM] | IC50 ([1]; Trypanosoma cruzi) [µM] | IC50 ([2]; Trypanosoma cruzi, TULAHUEN, 96 h) [µM]
1 | CN1CCN(n2cnc3c(OCc4ccccc4)ncnc32)CC1 [Compound 29] | 157 | 100.58 | 98.35 | 63.21 | >1000 µM | >1000 µM | 4.86 | – | –
2 | O=C(Cn1ccnc1[N+](=O)[O-])NCc1ccccc1 [BNZ, benznidazole, reference compound] | – | – | – | – | 255.3 (10.8) µM and 255.3 µM | 209.5 (15.0) µM and 209.5 µM | – | 1.82 | 1.72

Reference: publication PMC8308784, “Novel Purine Chemotypes with Activity against Plasmodium falciparum and Trypanosoma cruzi” (Pharmaceuticals, 2021)
